Results on 1 molecule are retold here after ChEMBL document CHEMBL1125472, “5-lipoxygenase: properties, pharmacology, and the quinolinyl(bridged)aryl class of inhibitors” (J Med Chem, 1992).

Assay [1] deals with T1, Prostaglandin G/H synthase (cyclooxygenase) (Mus musculus, UniProt P22437+Q05769).
T1 sequence (P22437 whole entry): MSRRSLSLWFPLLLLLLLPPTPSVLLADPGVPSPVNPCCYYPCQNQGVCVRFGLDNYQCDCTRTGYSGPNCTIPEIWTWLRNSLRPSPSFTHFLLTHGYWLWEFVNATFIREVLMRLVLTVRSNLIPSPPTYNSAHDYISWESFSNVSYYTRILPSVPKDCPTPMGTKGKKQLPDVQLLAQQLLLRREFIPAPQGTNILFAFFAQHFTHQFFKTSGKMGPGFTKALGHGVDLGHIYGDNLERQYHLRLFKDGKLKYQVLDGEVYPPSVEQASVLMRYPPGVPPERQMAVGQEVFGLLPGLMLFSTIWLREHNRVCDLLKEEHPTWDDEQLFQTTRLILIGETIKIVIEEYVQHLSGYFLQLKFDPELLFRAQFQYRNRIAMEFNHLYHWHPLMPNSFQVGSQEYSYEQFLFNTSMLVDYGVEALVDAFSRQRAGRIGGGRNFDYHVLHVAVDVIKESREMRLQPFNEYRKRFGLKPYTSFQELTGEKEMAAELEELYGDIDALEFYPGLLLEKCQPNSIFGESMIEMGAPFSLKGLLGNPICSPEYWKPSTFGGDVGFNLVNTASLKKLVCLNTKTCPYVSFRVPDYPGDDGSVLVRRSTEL
T1 sequence (Q05769 whole entry): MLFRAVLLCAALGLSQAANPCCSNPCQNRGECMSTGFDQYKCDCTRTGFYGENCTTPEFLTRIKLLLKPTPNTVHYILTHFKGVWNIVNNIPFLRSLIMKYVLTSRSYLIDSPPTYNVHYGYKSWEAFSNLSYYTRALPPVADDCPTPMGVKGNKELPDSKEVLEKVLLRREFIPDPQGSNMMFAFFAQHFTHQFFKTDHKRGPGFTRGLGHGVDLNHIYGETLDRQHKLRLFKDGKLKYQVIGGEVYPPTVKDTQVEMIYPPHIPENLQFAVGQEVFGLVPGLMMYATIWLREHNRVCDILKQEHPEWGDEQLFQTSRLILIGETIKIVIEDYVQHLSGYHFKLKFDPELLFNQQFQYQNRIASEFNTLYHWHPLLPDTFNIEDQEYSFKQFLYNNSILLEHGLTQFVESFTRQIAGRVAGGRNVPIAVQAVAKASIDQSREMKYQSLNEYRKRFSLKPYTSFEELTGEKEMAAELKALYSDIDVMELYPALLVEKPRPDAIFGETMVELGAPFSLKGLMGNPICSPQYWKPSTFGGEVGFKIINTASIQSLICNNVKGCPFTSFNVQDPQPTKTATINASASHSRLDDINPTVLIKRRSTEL
Kind of assay: The compound was tested for inhibitory activity against cyclooxygenase in mouse macrophages. In kind it is protein assay.

For another assay, the system named is RBL-2H3. Kind of assay: The compound was tested for inhibition LTC4 synthesis in RBL-2H3 Cells. Type of assay: functional, Rattus norvegicus.
For the next assay, the target named is T2, Cyclooxygenase (Rattus norvegicus, UniProt P35355+Q63921).
T2 sequence (P35355 whole entry): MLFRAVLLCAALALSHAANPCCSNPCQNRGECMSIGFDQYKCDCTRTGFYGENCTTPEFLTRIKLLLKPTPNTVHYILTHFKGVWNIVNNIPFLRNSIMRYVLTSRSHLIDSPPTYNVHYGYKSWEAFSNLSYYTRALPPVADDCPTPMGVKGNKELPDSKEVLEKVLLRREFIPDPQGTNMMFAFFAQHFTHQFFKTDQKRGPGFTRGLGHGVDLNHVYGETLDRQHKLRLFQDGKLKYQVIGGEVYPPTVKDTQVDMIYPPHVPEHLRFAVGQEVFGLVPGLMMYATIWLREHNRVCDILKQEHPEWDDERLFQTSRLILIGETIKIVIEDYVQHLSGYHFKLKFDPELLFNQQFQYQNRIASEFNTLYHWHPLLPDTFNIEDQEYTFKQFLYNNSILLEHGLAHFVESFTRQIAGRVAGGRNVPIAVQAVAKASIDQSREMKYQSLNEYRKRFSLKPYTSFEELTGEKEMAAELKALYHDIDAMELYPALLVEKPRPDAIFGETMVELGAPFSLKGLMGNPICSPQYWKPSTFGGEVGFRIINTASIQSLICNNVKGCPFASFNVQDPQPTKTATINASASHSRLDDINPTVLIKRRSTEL
T2 sequence (Q63921 whole entry): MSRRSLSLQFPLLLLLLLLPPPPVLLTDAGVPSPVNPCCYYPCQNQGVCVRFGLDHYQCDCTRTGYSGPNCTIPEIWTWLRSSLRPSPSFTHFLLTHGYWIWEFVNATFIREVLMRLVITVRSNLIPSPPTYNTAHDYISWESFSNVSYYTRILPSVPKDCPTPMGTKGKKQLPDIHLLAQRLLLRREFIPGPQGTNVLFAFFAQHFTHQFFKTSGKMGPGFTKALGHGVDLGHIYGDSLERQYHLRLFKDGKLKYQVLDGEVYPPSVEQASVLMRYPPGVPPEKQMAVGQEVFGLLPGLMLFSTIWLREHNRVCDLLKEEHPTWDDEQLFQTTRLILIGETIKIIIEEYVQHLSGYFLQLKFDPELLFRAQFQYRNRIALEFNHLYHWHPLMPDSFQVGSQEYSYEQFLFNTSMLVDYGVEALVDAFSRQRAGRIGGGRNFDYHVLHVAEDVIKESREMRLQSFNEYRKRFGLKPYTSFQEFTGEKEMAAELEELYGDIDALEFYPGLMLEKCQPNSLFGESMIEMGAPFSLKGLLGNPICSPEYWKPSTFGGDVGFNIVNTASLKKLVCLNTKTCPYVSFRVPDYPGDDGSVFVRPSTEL
Kind of assay: The compound was tested for inhibitory activity against cyclooxygenase in rat polymorphonuclear leukocytes[PMNS]. Type of assay: cell-based.

Broadly, the IC50 is the point on the concentration scale where inhibition reaches its midpoint. Read a high IC50 as weaker potency. In the case of `c1ccc2nc(COc3cccc4ccccc34)ccc2c1`, the IC50 in assay [1] is 44 µM; on Cyclooxygenase, 6.3 µM. This molecule gave an Inhibition with RBL-2H3 of 450 nM.
